# From ChEMBL document CHEMBL4507281, “Data for DCP probe BI-4394” (2021)
# How the values were obtained:
# [1] = biological target: T1, Inhibitor of nuclear factor kappa-B kinase subunit beta (Homo sapiens) (UniProt O14920); settings: Compound concentration 100.0 nM
# T1 sequence (whole entry): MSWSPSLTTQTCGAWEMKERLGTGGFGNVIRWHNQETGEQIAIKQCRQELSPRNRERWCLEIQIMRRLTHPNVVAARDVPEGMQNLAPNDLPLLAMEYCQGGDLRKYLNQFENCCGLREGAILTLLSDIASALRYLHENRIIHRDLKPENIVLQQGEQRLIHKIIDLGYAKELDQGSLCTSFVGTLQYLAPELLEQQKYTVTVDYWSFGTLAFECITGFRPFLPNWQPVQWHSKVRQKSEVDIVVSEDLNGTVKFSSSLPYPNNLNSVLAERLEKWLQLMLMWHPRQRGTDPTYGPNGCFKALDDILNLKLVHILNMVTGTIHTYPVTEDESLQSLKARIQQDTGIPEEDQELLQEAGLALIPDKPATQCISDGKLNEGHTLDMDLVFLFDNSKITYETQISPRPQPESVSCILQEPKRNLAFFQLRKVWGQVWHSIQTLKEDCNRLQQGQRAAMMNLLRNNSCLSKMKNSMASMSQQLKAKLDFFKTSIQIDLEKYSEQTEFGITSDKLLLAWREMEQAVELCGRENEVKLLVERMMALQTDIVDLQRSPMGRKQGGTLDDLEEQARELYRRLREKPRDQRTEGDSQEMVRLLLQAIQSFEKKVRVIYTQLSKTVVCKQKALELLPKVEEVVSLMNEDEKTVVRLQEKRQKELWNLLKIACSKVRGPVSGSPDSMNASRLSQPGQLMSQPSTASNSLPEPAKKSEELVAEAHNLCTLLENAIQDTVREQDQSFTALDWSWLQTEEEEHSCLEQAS
# [2] = biological target: Non-receptor tyrosine-protein kinase TYK2 (Homo sapiens) (UniProt P29597); settings: Compound concentration 100.0 nM
# [3] = biological target: STE20-like serine/threonine-protein kinase (Homo sapiens) (UniProt Q9H2G2); settings: Compound concentration 100.0 nM
# [4] = biological target: Activated CDC42 kinase 1 (Homo sapiens) (UniProt Q07912); settings: Compound concentration 100.0 nM
# [5] = biological target: Proto-oncogene tyrosine-protein kinase ROS (Homo sapiens) (UniProt P08922); settings: Compound concentration 100.0 nM
# [6] = biological target: Phosphatidylinositol 4-phosphate 3-kinase C2 domain-containing subunit beta (Homo sapiens) (UniProt O00750); settings: Compound concentration 100.0 nM
# [7] = biological target: Serine/threonine-protein kinase PLK2 (Homo sapiens) (UniProt Q9NYY3); settings: Compound concentration 100.0 nM
# [8] = tested on: Receptor-type tyrosine-protein kinase FLT3 (Homo sapiens), P36888 [UNDEFINED MUTATION]; settings: Compound concentration 100.0 nM
# [9] = biological target: 5-hydroxytryptamine receptor 1D (Homo sapiens) (UniProt P28221); settings: Compound concentration 10.0 uM
# [10] = tested on: Tyrosine-protein kinase ABL1 (Homo sapiens), P00519 [E255K]; settings: Compound concentration 100.0 nM
# [11] = biological target: Dual specificity protein kinase TTK (Homo sapiens) (UniProt P33981); settings: Compound concentration 100.0 nM
# [12] = biological target: 5-hydroxytryptamine receptor 5A (Homo sapiens) (UniProt P47898); settings: Compound concentration 10.0 uM
# [13] = biological target: Fibroblast growth factor receptor 3 (Homo sapiens) (UniProt P22607); settings: Compound concentration 100.0 nM
# [14] = biological target: Hormonally up-regulated neu tumor-associated kinase (Homo sapiens) (UniProt P57058); settings: Compound concentration 100.0 nM
# [15] = biological target: Cyclin-dependent kinase 3 (Homo sapiens) (UniProt Q00526); settings: Compound concentration 100.0 nM
# [16] = biological target: Serine/threonine-protein kinase tousled-like 1 (Homo sapiens) (UniProt Q9UKI8); settings: Compound concentration 100.0 nM
# [17] = biological target: Serine/threonine-protein kinase haspin (Homo sapiens) (UniProt Q8TF76); settings: Compound concentration 100.0 nM
# [18] = biological target: Cyclin-dependent kinase 4 (Homo sapiens) (UniProt P11802); settings: Compound concentration 100.0 nM
# [19] = biological target: Testis-specific serine/threonine-protein kinase 3 (Homo sapiens) (UniProt Q96PN8); settings: Compound concentration 100.0 nM
# [20] = biological target: Alpha-1B adrenergic receptor (Homo sapiens) (UniProt P35368); settings: Compound concentration 10.0 uM
# [21] = biological target: Ephrin type-B receptor 3 (Homo sapiens) (UniProt P54753); settings: Compound concentration 100.0 nM
# [22] = biological target: Fibroblast growth factor receptor 4 (Homo sapiens) (UniProt P22455); settings: Compound concentration 100.0 nM
# [23] = biological target: Mitogen-activated protein kinase kinase kinase 19 (Homo sapiens) (UniProt Q56UN5); settings: Compound concentration 100.0 nM
# [24] = biological target: Mitogen-activated protein kinase kinase kinase 20 (Homo sapiens) (UniProt Q9NYL2); settings: Compound concentration 100.0 nM
# [25] = tested on: Tyrosine-protein kinase ABL1 (Homo sapiens), P00519 [H396P]; settings: Compound concentration 100.0 nM
# [26] = biological target: Serine/threonine-protein kinase LATS2 (Homo sapiens) (UniProt Q9NRM7); settings: Compound concentration 100.0 nM
# [27] = biological target: Ribosomal protein S6 kinase alpha-4 (Homo sapiens) (UniProt O75676); settings: Compound concentration 100.0 nM
# [28] = biological target: Mitogen-activated protein kinase kinase kinase kinase 5 (Homo sapiens) (UniProt Q9Y4K4); settings: Compound concentration 100.0 nM
# [29] = biological target: Tyrosine-protein kinase BTK (Homo sapiens) (UniProt Q06187); settings: Compound concentration 100.0 nM
# [30] = biological target: MAP kinase-activated protein kinase 5 (Homo sapiens) (UniProt Q8IW41); settings: Compound concentration 100.0 nM
# [31] = tested on: Fibroblast growth factor receptor 3 (Homo sapiens), P22607 [G697C]; settings: Compound concentration 100.0 nM
# [32] = biological target: Mitogen-activated protein kinase 14 (Homo sapiens) (UniProt Q16539); settings: Compound concentration 100.0 nM
# [33] = tested on: Tyrosine-protein kinase ABL1 (Homo sapiens), P00519 [F317L]; settings: Compound concentration 100.0 nM
# [34] = biological target: Serine/threonine-protein kinase 16 (Homo sapiens) (UniProt O75716); settings: Compound concentration 100.0 nM
# [35] = biological target: SRSF protein kinase 1 (Homo sapiens) (UniProt Q96SB4); settings: Compound concentration 100.0 nM
# Chain of Hormonally up-regulated neu tumor-associated kinase (Homo sapiens) (P57058 whole entry): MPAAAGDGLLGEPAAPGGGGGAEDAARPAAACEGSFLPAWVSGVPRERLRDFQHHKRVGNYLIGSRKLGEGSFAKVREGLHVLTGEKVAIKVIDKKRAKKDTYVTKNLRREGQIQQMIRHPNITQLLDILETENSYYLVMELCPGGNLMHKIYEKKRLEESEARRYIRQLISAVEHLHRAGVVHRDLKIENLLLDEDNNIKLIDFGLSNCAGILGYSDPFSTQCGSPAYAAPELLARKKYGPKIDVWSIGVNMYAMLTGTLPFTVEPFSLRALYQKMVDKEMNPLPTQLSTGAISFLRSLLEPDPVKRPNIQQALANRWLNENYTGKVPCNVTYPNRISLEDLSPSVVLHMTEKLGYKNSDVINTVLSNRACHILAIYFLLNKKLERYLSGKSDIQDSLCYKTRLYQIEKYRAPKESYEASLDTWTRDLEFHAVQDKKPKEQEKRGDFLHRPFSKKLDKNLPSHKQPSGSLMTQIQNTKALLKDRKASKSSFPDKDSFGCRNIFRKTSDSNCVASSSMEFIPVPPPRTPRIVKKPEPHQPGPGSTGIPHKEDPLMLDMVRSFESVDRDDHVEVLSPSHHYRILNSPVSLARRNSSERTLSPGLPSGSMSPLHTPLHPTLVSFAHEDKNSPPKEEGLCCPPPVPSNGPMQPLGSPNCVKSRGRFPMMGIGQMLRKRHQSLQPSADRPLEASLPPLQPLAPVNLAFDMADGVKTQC
# Chain of STE20-like serine/threonine-protein kinase (Homo sapiens) (Q9H2G2 whole entry, looked up): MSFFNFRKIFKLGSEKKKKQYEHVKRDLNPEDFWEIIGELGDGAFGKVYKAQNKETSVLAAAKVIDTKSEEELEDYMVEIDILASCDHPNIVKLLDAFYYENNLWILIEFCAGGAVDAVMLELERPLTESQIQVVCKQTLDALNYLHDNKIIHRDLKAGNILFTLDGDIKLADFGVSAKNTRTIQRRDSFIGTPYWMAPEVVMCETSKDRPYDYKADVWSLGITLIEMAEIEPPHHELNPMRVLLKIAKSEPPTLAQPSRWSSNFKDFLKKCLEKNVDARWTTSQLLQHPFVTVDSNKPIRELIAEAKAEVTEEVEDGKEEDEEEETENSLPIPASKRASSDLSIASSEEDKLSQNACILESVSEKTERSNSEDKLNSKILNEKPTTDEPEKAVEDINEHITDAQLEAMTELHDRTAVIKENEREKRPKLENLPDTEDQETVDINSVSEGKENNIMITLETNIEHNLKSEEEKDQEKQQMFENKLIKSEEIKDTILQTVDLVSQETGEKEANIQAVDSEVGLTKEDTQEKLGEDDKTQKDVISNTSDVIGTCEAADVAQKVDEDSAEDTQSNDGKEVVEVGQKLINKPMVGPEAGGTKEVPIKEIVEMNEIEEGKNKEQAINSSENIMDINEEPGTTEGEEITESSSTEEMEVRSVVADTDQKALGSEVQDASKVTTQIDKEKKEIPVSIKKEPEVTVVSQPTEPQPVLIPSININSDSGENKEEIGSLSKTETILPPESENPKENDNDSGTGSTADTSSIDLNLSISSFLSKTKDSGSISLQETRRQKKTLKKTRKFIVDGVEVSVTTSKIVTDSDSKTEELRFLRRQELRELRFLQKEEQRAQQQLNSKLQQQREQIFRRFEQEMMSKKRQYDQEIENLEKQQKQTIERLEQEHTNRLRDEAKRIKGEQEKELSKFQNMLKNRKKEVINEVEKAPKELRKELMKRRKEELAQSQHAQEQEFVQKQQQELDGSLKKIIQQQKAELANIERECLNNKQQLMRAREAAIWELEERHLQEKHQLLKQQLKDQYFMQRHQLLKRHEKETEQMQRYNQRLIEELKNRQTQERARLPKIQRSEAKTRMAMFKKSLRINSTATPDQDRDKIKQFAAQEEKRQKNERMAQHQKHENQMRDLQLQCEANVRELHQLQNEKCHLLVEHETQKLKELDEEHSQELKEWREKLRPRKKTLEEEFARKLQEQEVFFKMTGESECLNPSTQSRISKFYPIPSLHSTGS
# Chain of Activated CDC42 kinase 1 (Homo sapiens) (Q07912 whole entry, looked up): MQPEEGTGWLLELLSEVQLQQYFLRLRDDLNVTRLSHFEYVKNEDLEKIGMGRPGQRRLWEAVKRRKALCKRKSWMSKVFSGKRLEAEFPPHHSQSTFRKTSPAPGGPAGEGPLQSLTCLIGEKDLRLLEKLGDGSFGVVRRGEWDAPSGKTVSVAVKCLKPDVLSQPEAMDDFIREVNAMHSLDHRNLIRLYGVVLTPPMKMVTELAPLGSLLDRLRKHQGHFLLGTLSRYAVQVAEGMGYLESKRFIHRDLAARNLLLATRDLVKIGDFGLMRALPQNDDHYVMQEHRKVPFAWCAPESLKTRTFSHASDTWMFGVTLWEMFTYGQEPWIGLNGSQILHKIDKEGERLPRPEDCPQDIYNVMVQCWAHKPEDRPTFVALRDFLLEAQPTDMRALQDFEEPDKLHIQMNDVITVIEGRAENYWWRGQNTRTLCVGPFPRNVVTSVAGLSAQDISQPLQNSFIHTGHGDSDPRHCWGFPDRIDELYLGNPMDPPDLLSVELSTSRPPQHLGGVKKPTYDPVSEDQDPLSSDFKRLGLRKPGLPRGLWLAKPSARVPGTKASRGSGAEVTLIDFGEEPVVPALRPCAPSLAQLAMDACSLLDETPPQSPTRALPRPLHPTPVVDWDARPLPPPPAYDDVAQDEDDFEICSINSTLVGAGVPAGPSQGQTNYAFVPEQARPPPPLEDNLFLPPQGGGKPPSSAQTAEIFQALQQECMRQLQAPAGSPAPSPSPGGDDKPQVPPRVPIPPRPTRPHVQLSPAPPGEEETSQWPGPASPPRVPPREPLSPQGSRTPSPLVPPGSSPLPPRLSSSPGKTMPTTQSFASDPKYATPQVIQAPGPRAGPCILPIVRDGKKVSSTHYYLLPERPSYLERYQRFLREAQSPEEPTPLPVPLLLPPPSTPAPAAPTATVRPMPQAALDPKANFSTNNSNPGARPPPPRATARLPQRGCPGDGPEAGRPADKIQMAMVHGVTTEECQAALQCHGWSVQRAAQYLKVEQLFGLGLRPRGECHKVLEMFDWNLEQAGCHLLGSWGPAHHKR
# Chain of Serine/threonine-protein kinase LATS2 (Homo sapiens) (Q9NRM7 whole entry): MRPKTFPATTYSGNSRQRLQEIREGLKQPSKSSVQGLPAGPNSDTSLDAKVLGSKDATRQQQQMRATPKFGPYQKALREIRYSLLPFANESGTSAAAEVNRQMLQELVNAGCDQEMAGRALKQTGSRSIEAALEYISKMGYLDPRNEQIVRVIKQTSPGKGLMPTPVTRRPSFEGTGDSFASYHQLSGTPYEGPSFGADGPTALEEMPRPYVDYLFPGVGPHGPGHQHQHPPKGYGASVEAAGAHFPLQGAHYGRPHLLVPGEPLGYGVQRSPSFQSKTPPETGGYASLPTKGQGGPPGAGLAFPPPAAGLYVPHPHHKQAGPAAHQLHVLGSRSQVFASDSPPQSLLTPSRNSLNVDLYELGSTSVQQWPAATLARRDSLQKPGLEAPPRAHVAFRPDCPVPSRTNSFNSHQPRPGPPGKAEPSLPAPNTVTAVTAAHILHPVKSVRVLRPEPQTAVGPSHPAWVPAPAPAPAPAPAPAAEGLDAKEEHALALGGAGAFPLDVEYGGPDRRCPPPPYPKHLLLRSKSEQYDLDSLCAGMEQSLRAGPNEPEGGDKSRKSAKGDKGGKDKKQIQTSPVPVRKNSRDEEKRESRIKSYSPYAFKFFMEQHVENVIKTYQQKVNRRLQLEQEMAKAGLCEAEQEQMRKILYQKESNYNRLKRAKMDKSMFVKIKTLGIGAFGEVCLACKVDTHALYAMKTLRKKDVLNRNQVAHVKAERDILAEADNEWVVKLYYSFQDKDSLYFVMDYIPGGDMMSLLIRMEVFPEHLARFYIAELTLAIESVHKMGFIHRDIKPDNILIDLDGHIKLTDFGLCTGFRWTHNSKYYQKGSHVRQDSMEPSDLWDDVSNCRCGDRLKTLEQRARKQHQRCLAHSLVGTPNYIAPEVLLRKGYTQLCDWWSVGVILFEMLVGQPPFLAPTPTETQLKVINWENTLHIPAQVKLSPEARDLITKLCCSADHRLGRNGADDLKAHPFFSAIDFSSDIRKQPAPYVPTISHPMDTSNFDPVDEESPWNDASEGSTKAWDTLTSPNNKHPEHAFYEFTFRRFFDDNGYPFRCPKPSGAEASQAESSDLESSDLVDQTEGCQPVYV
# Chain of Fibroblast growth factor receptor 3 (Homo sapiens) (P22607 23-806 limits assumed): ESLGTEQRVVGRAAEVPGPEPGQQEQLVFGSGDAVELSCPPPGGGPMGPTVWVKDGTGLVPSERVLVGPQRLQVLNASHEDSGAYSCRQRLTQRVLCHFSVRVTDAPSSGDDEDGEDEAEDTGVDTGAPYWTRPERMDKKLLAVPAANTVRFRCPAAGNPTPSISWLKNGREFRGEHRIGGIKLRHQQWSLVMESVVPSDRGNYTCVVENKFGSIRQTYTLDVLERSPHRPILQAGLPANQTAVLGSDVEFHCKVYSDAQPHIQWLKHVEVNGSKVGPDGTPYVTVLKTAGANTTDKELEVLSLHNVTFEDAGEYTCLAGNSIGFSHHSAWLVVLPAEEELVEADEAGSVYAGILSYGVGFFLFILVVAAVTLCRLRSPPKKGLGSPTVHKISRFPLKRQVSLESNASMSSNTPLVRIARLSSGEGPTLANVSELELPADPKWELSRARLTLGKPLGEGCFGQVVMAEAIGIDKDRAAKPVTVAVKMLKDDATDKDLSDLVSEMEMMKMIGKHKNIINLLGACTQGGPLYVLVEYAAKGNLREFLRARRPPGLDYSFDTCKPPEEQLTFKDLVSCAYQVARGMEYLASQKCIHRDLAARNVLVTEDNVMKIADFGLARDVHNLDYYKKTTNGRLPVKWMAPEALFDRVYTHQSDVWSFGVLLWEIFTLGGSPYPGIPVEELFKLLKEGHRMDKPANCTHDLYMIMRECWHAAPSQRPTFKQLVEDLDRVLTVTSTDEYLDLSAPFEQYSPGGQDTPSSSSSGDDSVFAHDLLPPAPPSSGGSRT
SMILES,residual activity [1],residual activity [2],residual activity [3],residual activity [4],residual activity [5],residual activity [6],residual activity [7],residual activity [8],inhibition [9],residual activity [10],residual activity [11],inhibition [12],residual activity [13],residual activity [14],residual activity [15],residual activity [16],residual activity [17],residual activity [18],residual activity [19],inhibition [20],other results
CCOC(=O)c1cc2cc(-c3cc(C(=O)NCc4ccc(C(=O)O)cc4)nn3C)ccc2[nH]1 [BI 4394],100%,90%,98%,100%,97%,93%,80%,98%,3.64%,88%,93%,14.8%,97%,100%,43%,83%,77%,82%,91%,-1.29%,residual activity [21]: 90%; residual activity [22]: 68%; residual activity [23]: 75%; residual activity [24]: 87%; residual activity [25]: 88%; residual activity [26]: 74%; residual activity [27]: 86%; residual activity [28]: 93%; residual activity [29]: 77%; residual activity [30]: 92%; residual activity [31]: 92%; residual activity [32]: 100%; residual activity [33]: 100%; residual activity [34]: 78%; residual activity [35]: 75%
Cn1nc(C(=O)NCc2ccc(C(=O)O)cc2)cc1-c1ccc2[nH]ccc2c1 [BI 4395],93%,82%,65%,100%,74%,78%,100%,91%,10.1%,65%,88%,0.78%,93%,65%,88%,100%,77%,96%,97%,-6.1%,residual activity [21]: 100%; residual activity [22]: 100%; residual activity [23]: 85%; residual activity [24]: 80%; residual activity [25]: 71%; residual activity [26]: 100%; residual activity [27]: 81%; residual activity [28]: 96%; residual activity [29]: 77%; residual activity [30]: 89%; residual activity [31]: 82%; residual activity [32]: 100%; residual activity [33]: 62%; residual activity [34]: 86%; residual activity [35]: 33%
